What was measured:
Type in all cases: cell-based, mouse
[1] = tested on: NIH3T3 cells overexpressing T.Tn; assay: MTT cell viability, T.Tn overexpressing cells vs parental line; conditions: T.Tn high-expressing cells / parental cell line, 3 to 4 days
Method in brief: (§1)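 MTT viability of transfected versus parental NIH3T3 after 3–4 days in twofold drug dilution series; values are log ratios of IC40.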

[2] = tested on: NIH3T3 cells overexpressing cystatin alpha; assay: MTT cell viability, cystatin alpha overexpressing cells vs parental line; conditions: cystatin alpha high-expressing cells / parental cell line, 3 to 4 days
Method in brief: (§2)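 Stable NIH3T3 transfectants (cDNA in pRc-CMV-type vector, G-418-selected, high expressers picked by Western blot) and parental cells were seeded at 1×10^5 cells/ml into twofold serial drug dilutions and grown 3–4 days. MTT formazan was read at 574/655 nm, and log ratios of IC40 values were derived.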

[3] = tested on: NIH3T3 cells overexpressing HSP9O; assay: MTT cell viability, HSP9O overexpressing cells vs parental line; conditions: HSP9O high-expressing cells / parental cell line, 3 to 4 days
Method in brief: as §2

[4] = tested on: NIH3T3 cells overexpressing JNK-DN; assay: MTT cell viability, JNK-DN overexpressing cells vs parental line; conditions: JNK-DN high-expressing cells / parental cell line, 3 to 4 days
Method in brief: as §2

[5] = tested on: NIH3T3 cells overexpressing DAN; assay: MTT cell viability, DAN overexpressing cells vs parental line; conditions: DAN high-expressing cells / parental cell line, 3 to 4 days
Method in brief: as §2

[6] = tested on: NIH3T3 cells, TPA (PKC downreg); assay: MTT cell viability, TPA (PKC downreg) cells vs parental line; conditions: 3 to 4 days
[7] = tested on: NIH3T3 cells overexpressing cAMP-PK-CS; assay: MTT cell viability, cAMP-PK-CS overexpressing cells vs parental line; conditions: cAMP-PK-CS high-expressing cells / parental cell line, 3 to 4 days
Method in brief: as §1

[8] = tested on: NIH3T3 cells overexpressing p16/INK4A; assay: MTT cell viability, p16/INK4A overexpressing cells vs parental line; conditions: p16/INK4A high-expressing cells / parental cell line, 3 to 4 days
Method in brief: as §2

[9] = tested on: NIH3T3 cells overexpressing PKCalpha-KN; assay: MTT cell viability, PKCalpha-KN overexpressing cells vs parental line; conditions: 3 to 4 days
Method in brief: as §1

[10] = tested on: NIH3T3 cells overexpressing m-calpain; assay: MTT cell viability, m-calpain overexpressing cells vs parental line; conditions: m-calpain high-expressing cells / parental cell line, 3 to 4 days
Method in brief: as §1

[11] = tested on: NIH3T3 cells overexpressing HNF3b; assay: MTT cell viability, HNF3b overexpressing cells vs parental line; conditions: HNF3b high-expressing cells / parental cell line, 3 to 4 days
Method in brief: as §1

[12] = tested on: NIH3T3 cells overexpressing PDGF-R-Del; assay: MTT cell viability, PDGF-R-Del overexpressing cells vs parental line; conditions: PDGF-R-Del high-expressing cells / parental cell line, 3 to 4 days
Method in brief: as §2

[13] = tested on: NIH3T3 cells overexpressing RhoA; assay: MTT cell viability, RhoA overexpressing cells vs parental line; conditions: RhoA high-expressing cells / parental cell line, 3 to 4 days
Method in brief: as §2

[14] = tested on: NIH3T3 cells overexpressing Ha-ras; assay: MTT cell viability, drug sensitivity of Ha-ras overexpressing cells vs parental line; conditions: Ha-ras high-expressing cells / parental cell line, 3 to 4 days
Method in brief: as §1

[15] = tested on: NIH3T3 cells overexpressing PKCepsilon-KN; assay: MTT cell viability, PKCepsilon-KN overexpressing cells vs parental line; conditions: 3 to 4 days
Method in brief: as §1

[16] = tested on: NIH3T3 cells overexpressing N-ras; assay: MTT cell viability, N-ras overexpressing cells vs parental line; conditions: N-ras high-expressing cells / parental cell line, 3 to 4 days
Method in brief: as §2

[17] = tested on: NIH3T3 cells overexpressing HSP4O; assay: MTT cell viability, HSP4O overexpressing cells vs parental line; conditions: HSP4O high-expressing cells / parental cell line, 3 to 4 days
Method in brief: as §2

[18] = tested on: NIH3T3 cells overexpressing ERK-DN; assay: MTT cell viability, ERK-DN overexpressing cells vs parental line; conditions: ERK-DN high-expressing cells / parental cell line, 3 to 4 days
Method in brief: as §1

[19] = tested on: NIH3T3 cells overexpressing caspase-3; assay: MTT cell viability, caspase-3 overexpressing cells vs parental line; conditions: caspase-3 high-expressing cells / parental cell line, 3 to 4 days
Method in brief: as §1

[20] = PKCalpha-KN (first of two lines) high-expressing cells / parental cell line
[21] = PKCalpha-KN (second of two lines) high-expressing cells / parental cell line
[22] = PKCepsilon-KN (first of two lines) high-expressing cells / parental cell line
[23] = PKCepsilon-KN (second of two lines) high-expressing cells / parental cell line

SMILES | logarithmic value of ratio of IC40 values [1] | logarithmic value of ratio of IC40 values [2] | logarithmic value of ratio of IC40 values [3] | logarithmic value of ratio of IC40 values [4] | logarithmic value of ratio of IC40 values [5] | logarithmic value of ratio of IC40 values [6] | logarithmic value of ratio of IC40 values [7] | logarithmic value of ratio of IC40 values [8] | logarithmic value of ratio of IC40 values [9, 20] | logarithmic value of ratio of IC40 values [9, 21] | logarithmic value of ratio of IC40 values [10] | logarithmic value of ratio of IC40 values [11] | logarithmic value of ratio of IC40 values [12] | logarithmic value of ratio of IC40 values [13] | logarithmic value of ratio of IC40 values [14] | logarithmic value of ratio of IC40 values [15, 22] | logarithmic value of ratio of IC40 values [15, 23] | logarithmic value of ratio of IC40 values [16] | logarithmic value of ratio of IC40 values [17] | logarithmic value of ratio of IC40 values [18] | other results
C=C1[C@@H](O)[C@@H]2O[C@]3(CC[C@H](/C=C/[C@@H](C)[C@@H]4CC(C)=C[C@@]5(O[C@H](C[C@@](C)(O)C(=O)O)CC[C@H]5O)O4)O3)CC[C@H]2O[C@@H]1[C@@H](O)C[C@H](C)[C@H]1O[C@@]2(CCCCO2)CC[C@H]1C [OA, okadaic acid] | −0.16 | 0.08 | 0.07 | −0.07 | 0.04 | 0.12 | 0.08 | 0.06 | 0.09 | 0.00 | −0.08 | 0.08 | 0.21 | 0.00 | 0.11 | 0.00 | 0.00 | 0.00 | −0.02 | 0.00 | logarithmic value of ratio of IC40 values [19]: 0.00
C[C@@H]1O[C@@H](O[C@H]2C[C@@H](O)[C@]3(CO)[C@H]4[C@H](O)C[C@]5(C)[C@@H](C6=CC(=O)OC6)CC[C@]5(O)[C@@H]4CC[C@]3(O)C2)[C@H](O)[C@H](O)[C@H]1O [Ouabain, ouabain] | 0.28 | 1.28 | 0.92 | −0.08 | 0.74 | −0.08 | 0.00 | 0.63 | 0.00 | 0.06 | 0.05 | −0.23 | 0.19 | 0.15 | 0.32 | −0.15 | −0.12 | 0.56 | 0.00 | 0.48 | logarithmic value of ratio of IC40 values [19]: 0.65
C/C=C(/C)C(=O)O[C@H]1C(C)=C2[C@H]([C@@H]1OC(=O)CCCCCCC)[C@@](C)(OC(C)=O)C[C@H](OC(=O)CCC)[C@@]1(O)[C@H]2OC(=O)[C@@]1(C)O [Thapsigargin, thapsigargin] | 0.32 | 0.04 | 0.09 | 0.24 | 0.18 | −0.23 | 0.05 | −0.64 | 0.10 | 0.12 | 0.05 | 0.24 | 0.24 | 0.26 | 0.00 | 0.09 | 0.20 | 0.08 | 0.18 | −0.15 | logarithmic value of ratio of IC40 values [19]: −0.17
COc1ccc2c(c1)CC[C@@H]1[C@@H]2CC[C@]2(C)[C@@H](NCCCCCCN3C(=O)C=CC3=O)CC[C@@H]12 [U73122] | −0.26 | 0.04 | 0.18 | −0.07 | 0.36 | −0.12 | −0.18 | 0.28 | −0.33 | −0.97 | −0.14 | −0.31 | 0.00 | 0.12 | −0.19 | −0.21 | −0.38 | −0.54 | −0.20 | 0.00 | logarithmic value of ratio of IC40 values [19]: 0.53
COC[C@H]1OC(=O)c2coc3c2[C@@]1(C)C1=C(C3=O)[C@@H]2CCC(=O)[C@@]2(C)C[C@H]1OC(C)=O [Wortmannin, wortmannin] | 0.36 | 0.45 | 0.18 | −0.09 | 0.52 | 0.00 | −0.07 | 0.30 | 0.41 | −0.06 | 0.18 | 0.24 | 0.07 | 0.24 | 0.34 | −0.15 | −0.28 | 0.14 | −0.07 | −0.11 | logarithmic value of ratio of IC40 values [19]: 0.45
C=C[C@]1(C)CC[C@@H](C(=C)C)C[C@H]1C(=C)C [b-elemene, β-elemene] | −0.14 | 0.08 | 0.05 | −0.04 | 0.04 | 0.00 | −0.10 | 0.12 | 0.07 | −0.07 | 0.00 | −0.07 | 0.16 | 0.00 | −0.26 | 0.00 | −0.23 | 0.07 | 0.02 | 0.33 | logarithmic value of ratio of IC40 values [19]: 0.28

— patent US20040086901A1, “Database for analyzing gene function and method of analyzing gene function by dspa” (priority 2000, published 2004)
